According to patent US8901276B2, “Peptide reagents and methods for detection of colon dysplasia” (The Regents of the University of Michigan, priority 2010, dated 2014):
Where no end group is shown, it is not given here.

How the values were obtained:
excised polyps = assay: Ex vivo peptide binding to excised polyps; set-up: species or system CPC;Apc mice; conditions: 100 μM, 5 min
Procedure: Polyps from CPC;Apc mice (n=3 mice, 5 polyp pairs) were excised and washed 3× in PBS. The polyps were incubated in 100 μM peptide solution for 5 minutes and subsequently washed 3× with 1×PBS. Polyps were grossly imaged using the small animal endoscope to view binding to the polyp as a whole. Pairs of polyps (one candidate, one control) were imaged at a time to allow for the calculation of a candidate peptide to Control peptide 1 binding ratio for each pair analyzed. An average binding ratio was calculated ± one standard deviation. A similar procedure to determine mean grey scale values for image analysis was followed for the ex vivo polyps as described above for the in vivo polyps.

adenomatous polyps = assay: Confocal microscopy of polyp biopsy after in vivo peptide administration; set-up: species or system CPC;Apc mice; conditions: biopsy after in vivo FITC-peptide administration
Procedure: Preferential binding of Peptide compared to the Control peptide 1 on the adenomatous polyps was confirmed with confocal microscopy. A polyp biopsy was taken after 5′-FITC-labeled peptide administration in vivo, incubated in 1 μg/mL Hoechst dye for 5 minutes to stain living nuclei, rinsed 3× with 1×PBS and imaged on a Leica Confocal Microscope (Leica Microsystems, Bannockburn, Ill.).

“QPIHPNNM (also: FITC or Cy5.5 label) [Peptide 1, tested FITC- or Cy5.5-labeled]” was tested, and the “increase in binding compared to Control peptide 1” value (excised polyps) was about 2 fold and the “binding to adenomas, confocal images of biopsied polyps” value (adenomatous polyps) was “bound more to adenomas than the Control peptide 1”.
